Laboratory results: PubChem BioAssay AID1259407 (Chemical Carcinogenesis Research Information System (CCRIS), 2018)
Calls of active or inactive are those of the source. The rule behind the calls is not given here.

Tested on: CCRIS mutagenicity, Ames/micronucleus/aberration tests
Assay: CCRIS mutagenicity studies
[1] = Test System: AMES SALMONELLA TYPHIMURIUM, Strain/Indicator: TA98, Metabolic Activation: RAT, LIVER, S-9, AROCLOR 1254, Method: STANDARD PLATE
[2] = Test System: AMES SALMONELLA TYPHIMURIUM, Strain/Indicator: TA98, Metabolic Activation: NONE, Method: STANDARD PLATE
[3] = Test System: AMES SALMONELLA TYPHIMURIUM, Strain/Indicator: TA100, Metabolic Activation: NONE, Method: STANDARD PLATE
[4] = Test System: AMES SALMONELLA TYPHIMURIUM, Strain/Indicator: TA1535, Metabolic Activation: NONE, Method: STANDARD PLATE
[5] = Test System: AMES SALMONELLA TYPHIMURIUM, Strain/Indicator: TA1535, Metabolic Activation: RAT, LIVER, S-9, AROCLOR 1254, Method: STANDARD PLATE
[6] = Test System: AMES SALMONELLA TYPHIMURIUM, Strain/Indicator: TA1537, Metabolic Activation: NONE, Method: STANDARD PLATE
[7] = Test System: Mouse lymphoma, Strain/Indicator: L5178Y (tk+/tk-), Metabolic Activation: None, Method: Suspension/plate
[8] = Test System: Mouse lymphoma, Strain/Indicator: L5178Y (tk+/tk-), Metabolic Activation: Rat, Liver, S-9, Aroclor 1254, Method: Suspension/plate
[9] = Test System: AMES SALMONELLA TYPHIMURIUM, Strain/Indicator: TA102, Metabolic Activation: NONE, Method: STANDARD PLATE
[10] = Test System: AMES SALMONELLA TYPHIMURIUM, Strain/Indicator: TA1535, Metabolic Activation: NONE, Method: PREINCUBATION
[11] = Test System: AMES SALMONELLA TYPHIMURIUM, Strain/Indicator: TA1537, Metabolic Activation: NONE, Method: PREINCUBATION

COc1cc(N=Nc2ccccc2)ccc1N
mutagenic call (Test System: AMES SALMONELLA TYPHIMURIUM, Strain/Indicator: TA98, Metabolic Activation: RAT LIVER, CYTOSOL, AROCLOR 1254, Method: PREINCUBATION): inactive; negative
mutagenic call (Test System: AMES SALMONELLA TYPHIMURIUM, Strain/Indicator: TA98, Metabolic Activation: RAT LIVER, MICROSOMES, AROCLOR 1254, Method: PREINCUBATION): active; positive
mutagenic call (Test System: AMES SALMONELLA TYPHIMURIUM, Strain/Indicator: TA98, Metabolic Activation: RAT, LIVER, MICROSOMES, 3-METHOXY-4-AMINOAZOBENZENE, Method: PREINCUBATION): inactive; negative
mutagenic call (Test System: AMES SALMONELLA TYPHIMURIUM, Strain/Indicator: TA98, Metabolic Activation: RAT, LIVER, MICROSOMES, AROCLOR 1254, Method: PREINCUBATION): active; positive
mutagenic call (Test System: AMES SALMONELLA TYPHIMURIUM, Strain/Indicator: TA98, Metabolic Activation: RAT, LIVER, MICROSOMES, Method: PREINCUBATION): inactive; negative
mutagenic call [1]: active; positive
mutagenic call (Test System: AMES SALMONELLA TYPHIMURIUM, Strain/Indicator: TA98, Metabolic Activation: RAT, LIVER, S-9, KC500 OR PHENOBARBITAL, Method: LIQUID SUSPENSION): active; positive
mutagenic call (Test System: AMES SALMONELLA TYPHIMURIUM, Strain/Indicator: TA100, Metabolic Activation: RAT, LIVER, S-9, KC500 OR PHENOBARBITAL, Method: LIQUID SUSPENSION): active; positive
mutagenic call (Test System: AMES SALMONELLA TYPHIMURIUM, Strain/Indicator: TA1538, Metabolic Activation: RAT, LIVER, S-9, AROCLOR 1254, Method: STANDARD PLATE): active; positive

O=CC=C(Cl)Cl
mutagenic call [2]: active; positive
mutagenic call [1]: inactive; negative
mutagenic call [3]: active; positive
mutagenic call (Test System: AMES SALMONELLA TYPHIMURIUM, Strain/Indicator: TA100, Metabolic Activation: RAT, LIVER, S-9, AROCLOR 1254, Method: STANDARD PLATE): active; positive
mutagenic call [4]: active; positive
mutagenic call [5]: active; positive
mutagenic call [6]: inactive; negative
mutagenic call (Test System: AMES SALMONELLA TYPHIMURIUM, Strain/Indicator: TA1537, Metabolic Activation: RAT, LIVER, S-9, AROCLOR 1254, Method: STANDARD PLATE): inactive; negative

c1cc[c]([Sb]([c]2ccccc2)[c]2ccccc2)cc1
mutagenic call [5]: active; positive
mutagenic call [7]: inactive; negative
mutagenic call [8]: active; equivocal (previous evaluation positive)

Cc1c2ccccc2c(CCl)c2ccc3ccccc3c12
mutagenic call [3]: active; positive
mutagenic call [6]: active; positive

O=[N+]([O-])c1ccc2c3c(cccc13)C=C2
mutagenic call [2]: active; positive

Oc1ccc(O)c(-c2ccccc2)c1
mutagenic call (Test System: CHINESE HAMSTER V-79, Strain/Indicator: V-79 (HGPRT)/6-THIOGUANINE, Metabolic Activation: NONE): inactive; negative

CC(C)(S)[C@H](N)C(=O)O
mutagenic call (Test System: AMES SALMONELLA TYPHIMURIUM, Strain/Indicator: TA92, Metabolic Activation: NONE, Method: STANDARD PLATE): active; positive
mutagenic call (Test System: AMES SALMONELLA TYPHIMURIUM, Strain/Indicator: TA92, Metabolic Activation: RAT, KIDNEY, S-9, Method: STANDARD PLATE): active; positive
mutagenic call (Test System: AMES SALMONELLA TYPHIMURIUM, Strain/Indicator: TA92, Metabolic Activation: RAT, LIVER, S-9, Method: STANDARD PLATE): active; positive
mutagenic call [3]: active; positive
mutagenic call (Test System: AMES SALMONELLA TYPHIMURIUM, Strain/Indicator: TA100, Metabolic Activation: RAT, KIDNEY, S-9, Method: STANDARD PLATE): active; positive
mutagenic call (Test System: AMES SALMONELLA TYPHIMURIUM, Strain/Indicator: TA100, Metabolic Activation: RAT, LIVER, S-9, Method: STANDARD PLATE): active; positive
mutagenic call [9]: active; positive

Cc1cc(C)cc(NO)c1
mutagenic call (Test System: AMES SALMONELLA TYPHIMURIUM, Strain/Indicator: TA100, Metabolic Activation: RAT, LIVER, S-9, PCB, Method: PREINCUBATION): active; positive

CN1C(=O)CC[C@H]1c1cccnc1
mutagenic call (Test System: AMES SALMONELLA TYPHIMURIUM, Strain/Indicator: TA98, Metabolic Activation: NONE, Method: PREINCUBATION): inactive; negative
mutagenic call (Test System: AMES SALMONELLA TYPHIMURIUM, Strain/Indicator: TA98, Metabolic Activation: RAT, LIVER, S-9, AROCLOR 1254 (5%), Method: PREINCUBATION): inactive; negative
mutagenic call (Test System: AMES SALMONELLA TYPHIMURIUM, Strain/Indicator: TA100, Metabolic Activation: NONE, Method: PREINCUBATION): inactive; negative
mutagenic call (Test System: AMES SALMONELLA TYPHIMURIUM, Strain/Indicator: TA100, Metabolic Activation: RAT, LIVER, S-9, AROCLOR 1254 (5%), Method: PREINCUBATION): inactive; negative
mutagenic call [10]: inactive; negative
mutagenic call (Test System: AMES SALMONELLA TYPHIMURIUM, Strain/Indicator: TA1535, Metabolic Activation: RAT, LIVER, S-9, AROCLOR 1254 (5%), Method: PREINCUBATION): inactive; negative
mutagenic call [11]: inactive; negative
mutagenic call (Test System: AMES SALMONELLA TYPHIMURIUM, Strain/Indicator: TA1537, Metabolic Activation: RAT, LIVER, S-9, AROCLOR 1254 (5%), Method: PREINCUBATION): inactive; negative
mutagenic call (Test System: AMES SALMONELLA TYPHIMURIUM, Strain/Indicator: TA1538, Metabolic Activation: NONE, Method: PREINCUBATION): inactive; negative
mutagenic call (Test System: AMES SALMONELLA TYPHIMURIUM, Strain/Indicator: TA1538, Metabolic Activation: RAT, LIVER, S-9, AROCLOR 1254 (5%), Method: PREINCUBATION): inactive; negative

CNNC
mutagenic call (Test System: AMES SALMONELLA TYPHIMURIUM, Strain/Indicator: TA102, Metabolic Activation: NONE, Method: PREINCUBATION): inactive; negative
mutagenic call [9]: inactive; negative
mutagenic call [10]: inactive; negative
mutagenic call [4]: inactive; negative
mutagenic call (Test System: AMES SALMONELLA TYPHIMURIUM, Strain/Indicator: TA1535, Metabolic Activation: RAT, LIVER, S-9, AROCLOR 1254, Method: PREINCUBATION): inactive; negative
mutagenic call [11]: inactive; negative
mutagenic call (Test System: AMES SALMONELLA TYPHIMURIUM, Strain/Indicator: TA1537, Metabolic Activation: RAT, LIVER, S-9, AROCLOR 1254, Method: PREINCUBATION): inactive; negative
mutagenic call (Test System: AMES SALMONELLA TYPHIMURIUM, Strain/Indicator: TA2638, Metabolic Activation: NONE, Method: STANDARD PLATE): active; positive
mutagenic call (Test System: AMES SALMONELLA TYPHIMURIUM, Strain/Indicator: YG7108, Metabolic Activation: NONE, Method: STANDARD PLATE): active; positive
mutagenic call (Test System: E. COLI, Strain/Indicator: WP2 (PKM101), Metabolic Activation: NONE, Method: STANDARD PLATE): active; positive
mutagenic call (Test System: E. COLI, Strain/Indicator: WP2 UVRA (PKM101), Metabolic Activation: NONE, Method: STANDARD PLATE): active; positive

CCCCC1CO1 (stereo not drawn)
mutagenic call [3]: inactive; negative
mutagenic call [4]: inactive; negative

Nc1nc(OCc2ccccc2)c2[nH]cnc2n1
mutagenic call [7]: active; positive
mutagenic call [8]: inconclusive

O=C[C@H](NC(=O)N(CCCl)N=O)[C@@H](O)[C@H](O)[C@H](O)CO
mutagenic call (Test System: CHINESE HAMSTER V-79, Strain/Indicator: V-79/6-THIOGUANINE, Metabolic Activation: NONE, Method: STANDARD PLATE): active; positive
